Measurements published in PubChem BioAssay (NCI).
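These data come from cells grown in 96-well plates and exposed to compound for 48 hours at five concentrations. At the GI50, growth is halved. TGI marks complete inhibition of growth.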

Key:
Experiment in all cases: inhibition of tumour cell growth, NCI panel, 48 h
786-0 renal = tested on: 786-0 renal
A498 renal = tested on: A498 renal
A549 NSCLC = tested on: A549 NSCLC
ACHN renal = tested on: ACHN renal
BT-549 breast = tested on: BT-549 breast
CAKI-1 renal = tested on: CAKI-1 renal
CCRF-CEM leukemia = tested on: CCRF-CEM leukemia
COLO 205 colon = tested on: COLO 205 colon
DU-145 prostate = tested on: DU-145 prostate
EKVX NSCLC = tested on: EKVX NSCLC
HCC-2998 colon = tested on: HCC-2998 colon
HCT-116 colon = tested on: HCT-116 colon
HCT-15 colon = tested on: HCT-15 colon
HL-60(TB) leukemia = tested on: HL-60(TB) leukemia
HOP-62 NSCLC = tested on: HOP-62 NSCLC
HOP-92 NSCLC = tested on: HOP-92 NSCLC
HS 578T breast = tested on: HS 578T breast
HT29 colon = tested on: HT29 colon
IGROV1 ovarian = tested on: IGROV1 ovarian
K-562 leukemia = tested on: K-562 leukemia
KM12 colon = tested on: KM12 colon
LOX IMVI melanoma = tested on: LOX IMVI melanoma
M14 melanoma = tested on: M14 melanoma
MALME-3M melanoma = tested on: MALME-3M melanoma
MCF7 breast = tested on: MCF7 breast
MDA-MB-231 breast = tested on: MDA-MB-231 breast
MDA-MB-435 = tested on: MDA-MB-435
MOLT-4 leukemia = tested on: MOLT-4 leukemia
NCI-H226 lung = tested on: NCI-H226 lung
NCI-H23 lung = tested on: NCI-H23 lung
NCI-H460 lung = tested on: NCI-H460 lung
NCI-H522 lung = tested on: NCI-H522 lung
NCI/ADR-RES ovarian = tested on: NCI/ADR-RES ovarian
OVCAR-3 ovarian = tested on: OVCAR-3 ovarian
OVCAR-4 ovarian = tested on: OVCAR-4 ovarian
OVCAR-5 ovarian = tested on: OVCAR-5 ovarian
OVCAR-8 ovarian = tested on: OVCAR-8 ovarian
PC-3 prostate = tested on: PC-3 prostate
RPMI-8226 leukemia = tested on: RPMI-8226 leukemia
RXF 393 renal = tested on: RXF 393 renal
SF-268 CNS = tested on: SF-268 CNS
SF-295 CNS = tested on: SF-295 CNS
SF-539 CNS = tested on: SF-539 CNS
SK-MEL-2 melanoma = tested on: SK-MEL-2 melanoma
SK-MEL-28 melanoma = tested on: SK-MEL-28 melanoma
SK-MEL-5 melanoma = tested on: SK-MEL-5 melanoma
SK-OV-3 ovarian = tested on: SK-OV-3 ovarian
SN12C renal = tested on: SN12C renal
SNB-19 CNS = tested on: SNB-19 CNS
SNB-75 CNS = tested on: SNB-75 CNS
SR leukemia = tested on: SR leukemia
SW-620 colon = tested on: SW-620 colon
T-47D breast = tested on: T-47D breast
TK-10 renal = tested on: TK-10 renal
U251 CNS = tested on: U251 CNS
UACC-257 melanoma = tested on: UACC-257 melanoma
UACC-62 melanoma = tested on: UACC-62 melanoma
UO-31 renal = tested on: UO-31 renal

SMILES: COc1ccc(C2C(C#N)=C(/N=C/c3ccc(Cl)cc3)Oc3c2sc2c(C)cccc32)cc1 (stereo unspecified)
- GI50 (786-0 renal): 4.34 µM
- TGI (786-0 renal): 28.2 µM
- GI50 (A498 renal): 12.6 µM
- TGI (A498 renal): 27.5 µM
- GI50 (A549 NSCLC): 2.22 µM
- TGI (A549 NSCLC): 28.9 µM
- GI50 (ACHN renal): 3.94 µM
- TGI (ACHN renal): 17.8 µM
- GI50 (BT-549 breast): 1.21 µM
- TGI (BT-549 breast): 18.8 µM
- GI50 (CAKI-1 renal): 4.03 µM
- TGI (CAKI-1 renal): 22.3 µM
- GI50 (CCRF-CEM leukemia): 3.01 µM
- TGI (CCRF-CEM leukemia): > 100 µM
- GI50 (COLO 205 colon): 2.59 µM
- TGI (COLO 205 colon): 6.96 µM
- GI50 (DU-145 prostate): 3.2 µM
- TGI (DU-145 prostate): 14 µM
- GI50 (EKVX NSCLC): 3.87 µM
- TGI (EKVX NSCLC): 17.3 µM
- GI50 (HCC-2998 colon): 1.91 µM
- TGI (HCC-2998 colon): 5.99 µM
- GI50 (HCT-116 colon): 1.55 µM
- TGI (HCT-116 colon): 13.4 µM
- GI50 (HCT-15 colon): 0.731 µM
- TGI (HCT-15 colon): 10.5 µM
- GI50 (HL-60(TB) leukemia): 0.433 µM
- TGI (HL-60(TB) leukemia): 2.94 µM
- GI50 (HOP-62 NSCLC): 4.07 µM
- TGI (HOP-62 NSCLC): 19.7 µM
- GI50 (HOP-92 NSCLC): 1.69 µM
- TGI (HOP-92 NSCLC): 18.1 µM
- GI50 (HS 578T breast): 2.44 µM
- TGI (HS 578T breast): 19.1 µM
- GI50 (HT29 colon): 2.76 µM
- TGI (HT29 colon): 8.76 µM
- GI50 (IGROV1 ovarian): 2.27 µM
- TGI (IGROV1 ovarian): 17.4 µM
- GI50 (K-562 leukemia): 0.404 µM
- TGI (K-562 leukemia): > 100 µM
- GI50 (KM12 colon): 1.4 µM
- TGI (KM12 colon): 12.6 µM
- GI50 (LOX IMVI melanoma): 1.89 µM
- TGI (LOX IMVI melanoma): 13.4 µM
- GI50 (M14 melanoma): 1.59 µM
- TGI (M14 melanoma): 10.8 µM
- GI50 (MALME-3M melanoma): 2.28 µM
- TGI (MALME-3M melanoma): 19.8 µM
- GI50 (MCF7 breast): 0.549 µM
- TGI (MCF7 breast): 21.4 µM
- GI50 (MDA-MB-231 breast): 2.73 µM
- TGI (MDA-MB-231 breast): 13.8 µM
- GI50 (MDA-MB-435): 0.312 µM
- TGI (MDA-MB-435): 0.993 µM
- GI50 (MOLT-4 leukemia): 3.37 µM
- TGI (MOLT-4 leukemia): 28.7 µM
- GI50 (NCI-H226 lung): 6.02 µM
- TGI (NCI-H226 lung): 24.3 µM
- GI50 (NCI-H23 lung): 2.34 µM
- TGI (NCI-H23 lung): 12.6 µM
- GI50 (NCI-H460 lung): 1.71 µM
- TGI (NCI-H460 lung): 12.8 µM
- GI50 (NCI-H522 lung): 0.247 µM
- TGI (NCI-H522 lung): 0.858 µM
- GI50 (NCI/ADR-RES ovarian): 0.668 µM
- TGI (NCI/ADR-RES ovarian): 4.49 µM
- GI50 (OVCAR-3 ovarian): 0.753 µM
- TGI (OVCAR-3 ovarian): 3.69 µM
- GI50 (OVCAR-4 ovarian): 3.4 µM
- TGI (OVCAR-4 ovarian): 25.9 µM
- GI50 (OVCAR-5 ovarian): 2.81 µM
- TGI (OVCAR-5 ovarian): 12.4 µM
- GI50 (OVCAR-8 ovarian): 2.87 µM
- TGI (OVCAR-8 ovarian): 11.4 µM
- GI50 (PC-3 prostate): 2.01 µM
- TGI (PC-3 prostate): 18.1 µM
- GI50 (RPMI-8226 leukemia): 3.21 µM
- TGI (RPMI-8226 leukemia): 18.5 µM
- GI50 (RXF 393 renal): 2.12 µM
- TGI (RXF 393 renal): 10.5 µM
- GI50 (SF-268 CNS): 4.28 µM
- TGI (SF-268 CNS): 21.2 µM
- GI50 (SF-295 CNS): 1.19 µM
- TGI (SF-295 CNS): 10.3 µM
- GI50 (SF-539 CNS): 1.31 µM
- TGI (SF-539 CNS): 3.54 µM
- GI50 (SK-MEL-2 melanoma): 2.17 µM
- TGI (SK-MEL-2 melanoma): 13 µM
- GI50 (SK-MEL-28 melanoma): 1.51 µM
- TGI (SK-MEL-28 melanoma): 18.8 µM
- GI50 (SK-MEL-5 melanoma): 1.44 µM
- TGI (SK-MEL-5 melanoma): 13.1 µM
- GI50 (SK-OV-3 ovarian): 3.12 µM
- TGI (SK-OV-3 ovarian): 17.5 µM
- GI50 (SN12C renal): 2.79 µM
- TGI (SN12C renal): 12.7 µM
- GI50 (SNB-19 CNS): 3.57 µM
- TGI (SNB-19 CNS): 16.7 µM
- GI50 (SNB-75 CNS): 3.08 µM
- TGI (SNB-75 CNS): 23.2 µM
- GI50 (SR leukemia): 0.413 µM
- TGI (SR leukemia): 20.6 µM
- GI50 (SW-620 colon): 1.11 µM
- TGI (SW-620 colon): 16.3 µM
- GI50 (T-47D breast): 1.77 µM
- TGI (T-47D breast): 23.1 µM
- GI50 (TK-10 renal): 12.5 µM
- TGI (TK-10 renal): 37.1 µM
- GI50 (U251 CNS): 2.96 µM
- TGI (U251 CNS): 14 µM
- GI50 (UACC-257 melanoma): 12.3 µM
- TGI (UACC-257 melanoma): 31.5 µM
- GI50 (UACC-62 melanoma): 0.515 µM
- TGI (UACC-62 melanoma): 10.2 µM
- GI50 (UO-31 renal): 1.97 µM
- TGI (UO-31 renal): 16 µM
